According to PMC11456916, “A screen for cell envelope stress uncovers an inhibitor of prolipoprotein diacylglyceryl transferase, Lgt, in Escherichiacoli” (iScience, 2024):

Tested on: 356 CRISPRi constructs in E. coli ΔtolC-pore
Assay: CRISPRi collection fitness screen with sub-inhibitory compound
Assay type: cell-based
Conditions: for Growth represented as mean colony biomass: 1μg/ml MAC0452936, 6ng/ml LolCDE-in-1, 250 ng/ml Vancomycin, 7 ng/ml CHIR090, n=4; for Growth, mean colony biomass (n=4): + 1μg/ml MAC0452936
In short: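 Mobile CRISPRi collection conjugated into the ΔtolC-pore strain and pinned on agar at 1536 density in technical quadruplicate with a sub-inhibitory MAC-0452936 concentration. No CRISPRi induction; only basal 5–10% knockdown.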

COc1ccc(C(=O)O/N=C(\c2cccs2)C(C)(C)C)cc1 [MAC0452936] was tested, and the “Growth represented as mean colony biomass” value (“Growth represented” below) (gRNA accA) was 0.9619, the “Growth, mean colony biomass (n=4)” value (gRNA aceF) was 1.536 and the “Growth, mean colony biomass (n=4)” value (gRNA alaS) was 1.17. For the same compound, the “Growth, mean colony biomass (n=4)” value (gRNA argS) was 1.078, the “Growth, mean colony biomass (n=4)” value (gRNA asnS) was 1.097 and the “Growth, mean colony biomass (n=4)” value (gRNA bamA) was 1.082. The “Growth, mean colony biomass (n=4)” value (gRNA bamD) was 1.114, the “Growth, mean colony biomass (n=4)” value (gRNA bioA) was 1.093 and the “Growth, mean colony biomass (n=4)” value (gRNA can) was 1.0791. For the same compound, the “Growth represented” value (gRNA cca) was 0.9631, the “Growth represented” value (gRNA coaA) was 0.9606 and the “Growth, mean colony biomass (n=4)” value (gRNA csrA) was 1.147. The “Growth represented” value (gRNA cydA) was 0.9568, the “Growth represented” value (gRNA cydX) was 0.9584 and the “Growth represented” value (gRNA dapD) was 0.9537. For the same compound, the “Growth represented” value (gRNA dapE) was 0.9829, the “Growth represented” value (gRNA der) was 0.8304 and the “Growth represented” value (gRNA dfp) was 0.9766. The “Growth, mean colony biomass (n=4)” value (gRNA dnaC) was 1.0695, the “Growth represented” value (gRNA dnaE) was 0.9743 and the “Growth represented” value (gRNA dnaN) was 0.9941. For the same compound, the “Growth represented” value (gRNA dnaX) was 0.9797, the “Growth, mean colony biomass (n=4)” value (gRNA dut) was 1.096 and the “Growth represented” value (gRNA eno) was 0.9696. For the same compound, the “Growth represented” value (gRNA era) was 0.9809, the “Growth represented” value (gRNA fabA) was 0.9981 and the “Growth represented” value (gRNA fabG) was 0.9894. For the same compound, the “Growth represented” value (gRNA fabI) was 0.9716, the “Growth represented” value (gRNA fdx) was 0.9955 and the “Growth represented” value (gRNA fldA) was 0.9924. For the same compound, the “Growth, mean colony biomass (n=4)” value (gRNA folA) was 1.134, the “Growth represented” value (gRNA folB) was 0.9792 and the “Growth, mean colony biomass (n=4)” value (gRNA folC) was 1.076. The “Growth represented” value (gRNA folE) was 0.9726, the “Growth represented” value (gRNA folP) was 0.9946 and the “Growth represented” value (gRNA frr) was 0.9805. For the same compound, the “Growth, mean colony biomass (n=4)” value (gRNA ftsA) was 1.121, the “Growth represented” value (gRNA gapA) was 0.983 and the “Growth, mean colony biomass (n=4)” value (gRNA glmS) was 1.092. The “Growth represented” value (gRNA glmU) was 0.9808, the “Growth represented” value (gRNA gltX) was 0.9823 and the “Growth, mean colony biomass (n=4)” value (gRNA glyA) was 1.091. The “Growth represented” value (gRNA groS) was 0.9881, the “Growth represented” value (gRNA grpE) was 0.9656 and the “Growth represented” value (gRNA guaA) was 0.9795. The “Growth, mean colony biomass (n=4)” value (gRNA hemD) was 1.079, the “Growth represented” value (gRNA hemG) was 0.9986 and the “Growth represented” value (gRNA hemH) was 1.001. For the same compound, the “Growth represented” value (gRNA hemL) was 0.9838, the “Growth represented” value (gRNA higA) was 0.9635 and the “Growth represented” value (gRNA hisS) was 0.9859. For the same compound, the “Growth represented” value (gRNA holD) was 0.9764, the “Growth represented” value (gRNA hscA) was 0.9953 and the “Growth, mean colony biomass (n=4)” value (gRNA infA) was 1.088. For the same compound, the “Growth represented” value (gRNA infC) was 0.9986, the “Growth represented” value (gRNA iscU) was 0.9867 and the “Growth represented” value (gRNA ispB) was 0.9983. The “Growth represented” value (gRNA ispF) was 0.9875, the “Growth, mean colony biomass (n=4)” value (gRNA leuS) was 1.417 and the “Growth, mean colony biomass (n=4)” value (gRNA lexA) was 1.542. The “Growth represented” value (gRNA lolC) was 0.9579, the “Growth, mean colony biomass (n=4)” value (gRNA lptA) was 1.476 and the “Growth, mean colony biomass (n=4)” value (gRNA lptB) was 1.32. The “Growth represented” value (gRNA lptC) was 0.9585, the “Growth represented” value (gRNA lptE) was 0.965 and the “Growth represented” value (gRNA lptF) was 0.9902. For the same compound, the “Growth represented” value (gRNA lptG) was 0.9845, the “Growth represented” value (gRNA lpxC) was 0.9609 and the “Growth represented” value (gRNA lpxD) was 0.9569. For the same compound, the “Growth, mean colony biomass (n=4)” value (gRNA mnmA) was 1.086, the “Growth, mean colony biomass (n=4)” value (gRNA mrdB) was 1.167 and the “Growth represented” value (gRNA mreB) was 0.9936. For the same compound, the “Growth represented” value (gRNA mreC) was 0.9829, the “Growth, mean colony biomass (n=4)” value (gRNA msbA) was 1.264 and the “Growth, mean colony biomass (n=4)” value (gRNA mukF) was 1.116. For the same compound, the “Growth represented” value (gRNA murB) was 0.9708, the “Growth represented” value (gRNA murC) was 0.97 and the “Growth, mean colony biomass (n=4)” value (gRNA murI) was 1.3051. The “Growth, mean colony biomass (n=4)” value (gRNA nadK) was 1.081, the “Growth represented” value (gRNA nusB) was 0.9578 and the “Growth represented” value (gRNA plsB) was 0.995. The “Growth, mean colony biomass (n=4)” value (gRNA prmC) was 1.083, the “Growth represented” value (gRNA proS) was 0.9787 and the “Growth, mean colony biomass (n=4)” value (gRNA psd) was 1.711. For the same compound, the “Growth, mean colony biomass (n=4)” value (gRNA pssA) was 1.089, the “Growth, mean colony biomass (n=4)” value (gRNA ptsI) was 1.104 and the “Growth represented” value (gRNA racR) was 0.9926. The “Growth, mean colony biomass (n=4)” value (gRNA rho) was 1.226, the “Growth represented” value (gRNA ribA) was 0.9923 and the “Growth represented” value (gRNA ribC) was 0.9978. The “Growth, mean colony biomass (n=4)” value (gRNA ribD) was 1.096, the “Growth represented” value (gRNA ribF) was 0.9646 and the “Growth represented” value (gRNA rimM) was 0.9609. The “Growth represented” value (gRNA rluD) was 0.9905, the “Growth, mean colony biomass (n=4)” value (gRNA rne) was 1.098 and the “Growth represented” value (gRNA rpe) was 0.9763. For the same compound, the “Growth, mean colony biomass (n=4)” value (gRNA rplA) was 1.0727, the “Growth represented” value (gRNA rplD) was 0.8324 and the “Growth represented” value (gRNA rplE) was 0.9904. For the same compound, the “Growth represented” value (gRNA rplJ) was 0.9775, the “Growth represented” value (gRNA rplO) was 0.9724 and the “Growth, mean colony biomass (n=4)” value (gRNA rplP) was 1.071. For the same compound, the “Growth represented” value (gRNA rplQ) was 0.9778, the “Growth represented” value (gRNA rplS) was 0.9888 and the “Growth, mean colony biomass (n=4)” value (gRNA rplV) was 1.1552. For the same compound, the “Growth, mean colony biomass (n=4)” value (gRNA rplX) was 1.077, the “Growth represented” value (gRNA rplY) was 0.9853 and the “Growth, mean colony biomass (n=4)” value (gRNA rpmC) was 1.078. The “Growth represented” value (gRNA rpmH) was 0.9594, the “Growth represented” value (gRNA rpmI) was 1.001 and the “Growth, mean colony biomass (n=4)” value (gRNA rpoC) was 1.115. The “Growth, mean colony biomass (n=4)” value (gRNA rpoE) was 1.071, the “Growth represented” value (gRNA rpoH) was 0.994 and the “Growth, mean colony biomass (n=4)” value (gRNA rpsC) was 1.101. For the same compound, the “Growth, mean colony biomass (n=4)” value (gRNA rpsD) was 1.173, the “Growth represented” value (gRNA rpsE) was 0.8351 and the “Growth represented” value (gRNA rpsF) was 0.9675. The “Growth, mean colony biomass (n=4)” value (gRNA rpsG) was 1.126, the “Growth represented” value (gRNA rpsH) was 0.8152 and the “Growth, mean colony biomass (n=4)” value (gRNA rpsK) was 1.169. The “Growth, mean colony biomass (n=4)” value (gRNA rpsL) was 1.132, the “Growth, mean colony biomass (n=4)” value (gRNA rpsM) was 1.248 and the “Growth, mean colony biomass (n=4)” value (gRNA rpsR) was 1.124. For the same compound, the “Growth, mean colony biomass (n=4)” value (gRNA rpsT) was 1.094, the “Growth represented” value (gRNA rsgA) was 0.8391 and the “Growth represented” value (gRNA safA) was 0.9619. The “Growth, mean colony biomass (n=4)” value (gRNA secA) was 1.102, the “Growth represented” value (gRNA secY) was 0.8296 and the “Growth represented” value (gRNA serS) was 0.9537. For the same compound, the “Growth represented” value (gRNA ssb) was 0.8295, the “Growth represented” value (gRNA sucA) was 0.8419 and the “Growth, mean colony biomass (n=4)” value (gRNA suhB) was 1.09. The “Growth represented” value (gRNA tilS) was 0.9915, the “Growth represented” value (gRNA tonB) was 0.9615 and the “Growth represented” value (gRNA trmD) was 0.9721. For the same compound, the “Growth represented” value (gRNA tsaB) was 0.9923, the “Growth represented” value (gRNA tsaD) was 0.966 and the “Growth, mean colony biomass (n=4)” value (gRNA tsaE) was 1.071. The “Growth represented” value (gRNA tsf) was 0.966, the “Growth represented” value (gRNA tusE) was 0.9697 and the “Growth represented” value (gRNA tyrS) was 0.9746. The “Growth represented” value (gRNA ubiB) was 0.9956, the “Growth represented” value (gRNA ubiD) was 0.9717 and the “Growth, mean colony biomass (n=4)” value (gRNA waaA) was 1.073. The “Growth represented” value (gRNA ydaS) was 0.9729, the “Growth represented” value (gRNA ydcD) was 0.9759 and the “Growth represented” value (gRNA ydhL) was 1. The “Growth, mean colony biomass (n=4)” value (gRNA yedN) was 1.142, the “Growth represented” value (gRNA yejM) was 0.9938 and the “Growth represented” value (gRNA yffS) was 0.9919. The “Growth represented” value (gRNA ygeF) was 0.966, the “Growth, mean colony biomass (n=4)” value (gRNA ygeN) was 1.0865 and the “Growth represented” value (gRNA yidC) was 0.8136. The “Growth represented” value (gRNA ymfE) was 0.9804, the “Growth represented” value (gRNA ymiB) was 0.9585 and the “Growth, mean colony biomass (n=4)” value (gRNA yqeL) was 1.316. For the same compound, the “Growth represented” value (gRNA yqgF) was 0.9701 and the “Growth, mean colony biomass (n=4)” value (gRNA zipA) was 1.803.
